Laboratory results taken from patent publication US12660819B2, “Herbicidal derivatives” (SYNGENTA CROP PROTECTION AG, priority 2020, dated 2026).

Key:
Type in all cases: in vivo
[1] = test system: Abutilon theophrasti (ABUTH); experiment: Post-emergence Test (glasshouse, percentage damage to the plant); conditions: post-emergence spray, 1000 g/ha unless otherwise stated, evaluated after 13 days
In short: (§1)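 Spray treatment of sown glasshouse pots at 1000 g/ha (default rate), vehicle acetone/water 50:50 plus 0.5% Tween 20. Read-out: percentage damage after 13 days, converted to a score where 5 denotes 81-100% and 1 denotes 0-20%.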

[2] = test system: Amaranthus retoflexus (AMARE); experiment: as above; conditions: post-emergence spray, 1000 g/ha unless otherwise stated, evaluated after 13 days
In short: as §1

[3] = test system: Echinochloa crus-galli (ECHCG); experiment: as above; conditions: post-emergence spray, 1000 g/ha unless otherwise stated, evaluated after 13 days
In short: as §1

[4] = test system: Ipomoea hederacea (IPOHE); experiment: as above; conditions: post-emergence spray, 1000 g/ha unless otherwise stated, evaluated after 13 days
In short: (§2)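 Seeds sown in standard soil in a glasshouse (24/16 °C day/night, 14 h light, 65% humidity), then sprayed with an aqueous solution of the compound formulated in acetone/water 50:50 with 0.5% Tween 20 at 1000 g/ha unless otherwise stated. Percentage damage was scored after 13 days on a five-point scale (5=81-100%; 1=0-20%).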

[5] = test system: Setaria faberi (SETFA); experiment: as above; conditions: post-emergence spray, 1000 g/ha unless otherwise stated, evaluated after 13 days
In short: as §2

[6] = test system: Zea mays (ZEAMX); experiment: as above; conditions: post-emergence spray, 1000 g/ha unless otherwise stated, evaluated after 13 days
In short: as §2

[7] = test system: Amaranthus retoflexus (AMARE); experiment: Pre-emergence Test (glasshouse, percentage damage to the plant); conditions: 1000 g/ha unless otherwise stated, five-point scale
[8] = test system: Setaria faberi (SETFA); experiment: as above; conditions: 1000 g/ha unless otherwise stated, five-point scale
[9] = test system: Echinochloa crus-galli (ECHCG); experiment: as above; conditions: 1000 g/ha unless otherwise stated, five-point scale
[10] = test system: Ipomoea hederacea (IPOHE); experiment: as above; conditions: 1000 g/ha unless otherwise stated, five-point scale
[11] = test system: Abutilon theophrasti (ABUTH); experiment: as above; conditions: 1000 g/ha unless otherwise stated, five-point scale
[12] = test system: Zea mays (ZEAMX); experiment: as above; conditions: 1000 g/ha unless otherwise stated, five-point scale

| SMILES | Post-emergence Test ABUTH, percentage damage to the plant (five-point scale) [1] | Post-emergence Test AMARE, percentage damage to the plant (five-point scale) [2] | Post-emergence Test ECHCG, percentage damage to the plant (five-point scale) [3] | Post-emergence Test IPOHE, percentage damage to the plant (five-point scale) [4] | Post-emergence Test SETFA, percentage damage to the plant (five-point scale) [5] | Post-emergence Test ZEAMX, percentage damage to the plant (five-point scale) [6] | percentage damage to the plant, AMARE [7] | percentage damage to the plant, SETFA [8] | percentage damage to the plant, ECHCG [9] | percentage damage to the plant, IPOHE [10] | percentage damage to the plant, ABUTH [11] | percentage damage to the plant, ZEAMX [12] |
| --- | --- | --- | --- | --- | --- | --- | --- | --- | --- | --- | --- | --- |
| CCOc1cc(-c2c(C)n(CC)c(-c3ccc(Cl)c(Cl)c3)c(C(=O)O)c2=O)ccc1C#N [Compound 107, 5-(4-cyano-3-ethoxy-phenyl)-2-(3,4-dichlorophenyl)-1-ethyl-6-methyl-4-oxo-pyridine-3-carboxylic acid] | 3 (3=41-60%) | 4 (4=61-80%) | 2 (2=21-40%) | 3 (3=41-60%) | 2 (2=21-40%) | 2 (2=21-40%) | 4 (4=61-80%) | 5 (5=81-100%) | 4 (4=61-80%) | 1 (1=0-20%) | 1 (1=0-20%) | 1 (1=0-20%) |
| CCn1c(C)c(-c2ccc(C(F)(F)F)nc2)c(=O)c(C(=O)O)c1-c1ccc(Cl)c(Cl)c1 [Compound 108, 2-(3,4-dichlorophenyl)-1-ethyl-6-methyl-4-oxo-5-[6-(trifluoromethyl)-3-pyridyl]pyridine-3-carboxylic acid] | 2 (2=21-40%) | 2 (2=21-40%) | 2 (2=21-40%) | 2 (2=21-40%) | 3 (3=41-60%) | 2 (2=21-40%) | 1 (1=0-20%) | 3 (3=41-60%) | 1 (1=0-20%) | 1 (1=0-20%) | 1 (1=0-20%) | 1 (1=0-20%) |
| CCn1c(C)c(-c2ccc(C(=O)N(C)C)cc2)c(=O)c(C(=O)O)c1-c1ccc(Cl)c(Cl)c1 [Compound 109, 2-(3,4-dichlorophenyl)-5-[4-(dimethylcarbamoyl)phenyl]-1-ethyl-6-methyl-4-oxo-pyridine-3-carboxylic acid] | 3 (3=41-60%) | 1 (1=0-20%) | 2 (2=21-40%) | 4 (4=61-80%) | 3 (3=41-60%) | 1 (1=0-20%) | 1 (1=0-20%) | 4 (4=61-80%) | 1 (1=0-20%) | 1 (1=0-20%) | 1 (1=0-20%) | 1 (1=0-20%) |
| CCn1c(C)c(-c2cccc(OCC(F)(F)F)c2)c(=O)c(C(=O)O)c1-c1ccc(Cl)c(Cl)c1 [Compound 110, 2-(3,4-dichlorophenyl)-1-ethyl-6-methyl-4-oxo-5-[3-(2,2,2-trifluoroethoxy)phenyl] pyridine-3-carboxylic acid] | 1 (1=0-20%) | 1 (1=0-20%) | 1 (1=0-20%) | 1 (1=0-20%) | 1 (1=0-20%) | 1 (1=0-20%) | 1 (1=0-20%) | 1 (1=0-20%) | 1 (1=0-20%) | 1 (1=0-20%) | 1 (1=0-20%) | 1 (1=0-20%) |
| CCn1c(C)c(-c2ccc(COC)cc2)c(=O)c(C(=O)O)c1-c1ccc(Cl)c(Cl)c1 [Compound 111, 2-(3,4-dichlorophenyl)-1-ethyl-5-[4-(methoxymethyl)phenyl]-6-methyl-4-oxo-pyridine-3-carboxylic acid] | 4 (4=61-80%) | 2 (2=21-40%) | 3 (3=41-60%) | 2 (2=21-40%) | 4 (4=61-80%) | 2 (2=21-40%) | 1 (1=0-20%) | 5 (5=81-100%) | 4 (4=61-80%) | 1 (1=0-20%) | 2 (2=21-40%) | 3 (3=41-60%) |
